Experimental data taken from PubChem BioAssay (NCI).
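Method: 48-hour compound exposure of cells in 96-well plates, five concentrations, linear interpolation of endpoints. GI50 is the concentration that inhibits growth by half. Definition used: TGI = concentration required for complete inhibition of growth.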

What was measured:
Experiment in all cases: growth of human tumour cells (NCI), 48 h
PC-3 prostate = test system: PC-3 prostate
OVCAR-8 ovarian = test system: OVCAR-8 ovarian
COLO 205 colon = test system: COLO 205 colon
HT29 colon = test system: HT29 colon
SF-539 CNS = test system: SF-539 CNS
SK-MEL-2 melanoma = test system: SK-MEL-2 melanoma
DU-145 prostate = test system: DU-145 prostate
MALME-3M melanoma = test system: MALME-3M melanoma
HOP-92 NSCLC = test system: HOP-92 NSCLC
TK-10 renal = test system: TK-10 renal
MOLT-4 leukemia = test system: MOLT-4 leukemia
UACC-257 melanoma = test system: UACC-257 melanoma
OVCAR-4 ovarian = test system: OVCAR-4 ovarian
KM12 colon = test system: KM12 colon
HCT-116 colon = test system: HCT-116 colon
NCI/ADR-RES ovarian = test system: NCI/ADR-RES ovarian
SF-295 CNS = test system: SF-295 CNS
NCI-H226 lung = test system: NCI-H226 lung
M14 melanoma = test system: M14 melanoma
MDA-MB-435 = test system: MDA-MB-435
SK-MEL-5 melanoma = test system: SK-MEL-5 melanoma
CCRF-CEM leukemia = test system: CCRF-CEM leukemia
NCI-H460 lung = test system: NCI-H460 lung
786-0 renal = test system: 786-0 renal
HL-60(TB) leukemia = test system: HL-60(TB) leukemia
SNB-19 CNS = test system: SNB-19 CNS
UO-31 renal = test system: UO-31 renal
CAKI-1 renal = test system: CAKI-1 renal
NCI-H522 lung = test system: NCI-H522 lung
A549 NSCLC = test system: A549 NSCLC
IGROV1 ovarian = test system: IGROV1 ovarian
SK-OV-3 ovarian = test system: SK-OV-3 ovarian
HOP-62 NSCLC = test system: HOP-62 NSCLC
SW-620 colon = test system: SW-620 colon
OVCAR-5 ovarian = test system: OVCAR-5 ovarian
NCI-H23 lung = test system: NCI-H23 lung
U251 CNS = test system: U251 CNS
OVCAR-3 ovarian = test system: OVCAR-3 ovarian
MDA-MB-231 breast = test system: MDA-MB-231 breast
T-47D breast = test system: T-47D breast
RPMI-8226 leukemia = test system: RPMI-8226 leukemia
HCT-15 colon = test system: HCT-15 colon
UACC-62 melanoma = test system: UACC-62 melanoma
SF-268 CNS = test system: SF-268 CNS
RXF 393 renal = test system: RXF 393 renal
SN12C renal = test system: SN12C renal
HS 578T breast = test system: HS 578T breast
MCF7 breast = test system: MCF7 breast
LOX IMVI melanoma = test system: LOX IMVI melanoma
SK-MEL-28 melanoma = test system: SK-MEL-28 melanoma
ACHN renal = test system: ACHN renal
BT-549 breast = test system: BT-549 breast
EKVX NSCLC = test system: EKVX NSCLC
K-562 leukemia = test system: K-562 leukemia
A498 renal = test system: A498 renal
SNB-75 CNS = test system: SNB-75 CNS

Q: What does the source list for `CN1C(=O)/C(=C/c2c(Cl)[nH]c3ccccc23)c2ccccc21`?
A: GI50 (PC-3 prostate): 29.5 µM; TGI (PC-3 prostate): > 100 µM; GI50 (OVCAR-8 ovarian): 63.4 µM; TGI (OVCAR-8 ovarian): > 100 µM; GI50 (COLO 205 colon): 18.1 µM; TGI (COLO 205 colon): 34.9 µM; GI50 (HT29 colon): 25.5 µM; TGI (HT29 colon): 98.5 µM; GI50 (SF-539 CNS): 33 µM; TGI (SF-539 CNS): 75.6 µM; GI50 (SK-MEL-2 melanoma): 45.1 µM; TGI (SK-MEL-2 melanoma): > 100 µM; GI50 (DU-145 prostate): 89.5 µM; TGI (DU-145 prostate): > 100 µM; GI50 (MALME-3M melanoma): 25.5 µM; TGI (MALME-3M melanoma): > 100 µM; GI50 (HOP-92 NSCLC): 37 µM; TGI (HOP-92 NSCLC): > 100 µM; GI50 (TK-10 renal): 14 µM; TGI (TK-10 renal): 46.2 µM; GI50 (MOLT-4 leukemia): 41.8 µM; TGI (MOLT-4 leukemia): > 100 µM; GI50 (UACC-257 melanoma): > 100 µM; TGI (UACC-257 melanoma): > 100 µM; GI50 (OVCAR-4 ovarian): 52.3 µM; TGI (OVCAR-4 ovarian): > 100 µM; GI50 (KM12 colon): 2.05 µM; TGI (KM12 colon): 10.1 µM; GI50 (HCT-116 colon): 25.9 µM; TGI (HCT-116 colon): 87.8 µM; GI50 (NCI/ADR-RES ovarian): 25.5 µM; TGI (NCI/ADR-RES ovarian): 61.2 µM; GI50 (SF-295 CNS): 25.9 µM; TGI (SF-295 CNS): 85.5 µM; GI50 (NCI-H226 lung): 48.3 µM; TGI (NCI-H226 lung): > 100 µM; GI50 (M14 melanoma): 19.8 µM; TGI (M14 melanoma): 65.8 µM; GI50 (MDA-MB-435): 23.8 µM; TGI (MDA-MB-435): 59.9 µM; GI50 (SK-MEL-5 melanoma): 14.6 µM; TGI (SK-MEL-5 melanoma): 51.2 µM; GI50 (CCRF-CEM leukemia): 29 µM; TGI (CCRF-CEM leukemia): > 100 µM; GI50 (NCI-H460 lung): 46.7 µM; TGI (NCI-H460 lung): > 100 µM; GI50 (786-0 renal): 32.4 µM; TGI (786-0 renal): > 100 µM; GI50 (HL-60(TB) leukemia): 32.6 µM; TGI (HL-60(TB) leukemia): 93.4 µM; GI50 (SNB-19 CNS): 35.4 µM; TGI (SNB-19 CNS): > 100 µM; GI50 (UO-31 renal): 37.1 µM; TGI (UO-31 renal): > 100 µM; GI50 (CAKI-1 renal): 29.8 µM; TGI (CAKI-1 renal): 89.5 µM; GI50 (NCI-H522 lung): 21.4 µM; TGI (NCI-H522 lung): 80.1 µM; GI50 (A549 NSCLC): 79.7 µM; TGI (A549 NSCLC): > 100 µM; GI50 (IGROV1 ovarian): 37.6 µM; TGI (IGROV1 ovarian): > 100 µM; GI50 (SK-OV-3 ovarian): 25.8 µM; TGI (SK-OV-3 ovarian): 67.1 µM; GI50 (HOP-62 NSCLC): 31.3 µM; TGI (HOP-62 NSCLC): > 100 µM; GI50 (SW-620 colon): 35.8 µM; TGI (SW-620 colon): > 100 µM; GI50 (OVCAR-5 ovarian): 55.9 µM; TGI (OVCAR-5 ovarian): > 100 µM; GI50 (NCI-H23 lung): 38.2 µM; TGI (NCI-H23 lung): > 100 µM; GI50 (U251 CNS): 40.4 µM; TGI (U251 CNS): > 100 µM; GI50 (OVCAR-3 ovarian): 22.6 µM; TGI (OVCAR-3 ovarian): 58.7 µM; GI50 (MDA-MB-231 breast): 39 µM; TGI (MDA-MB-231 breast): > 100 µM; GI50 (T-47D breast): 22.5 µM; TGI (T-47D breast): 71.2 µM; GI50 (RPMI-8226 leukemia): 24.1 µM; TGI (RPMI-8226 leukemia): > 100 µM; GI50 (HCT-15 colon): 34.1 µM; TGI (HCT-15 colon): > 100 µM; GI50 (UACC-62 melanoma): 37.4 µM; TGI (UACC-62 melanoma): > 100 µM; GI50 (SF-268 CNS): 66.7 µM; TGI (SF-268 CNS): > 100 µM; GI50 (RXF 393 renal): 53.4 µM; TGI (RXF 393 renal): > 100 µM; GI50 (SN12C renal): 77.2 µM; TGI (SN12C renal): > 100 µM; GI50 (HS 578T breast): 28.9 µM; TGI (HS 578T breast): 72.9 µM; GI50 (MCF7 breast): 53.7 µM; TGI (MCF7 breast): > 100 µM; GI50 (LOX IMVI melanoma): 43.3 µM; TGI (LOX IMVI melanoma): > 100 µM; GI50 (SK-MEL-28 melanoma): 35 µM; TGI (SK-MEL-28 melanoma): > 100 µM; GI50 (ACHN renal): 32.9 µM; TGI (ACHN renal): > 100 µM; GI50 (BT-549 breast): 37.4 µM; TGI (BT-549 breast): 94.3 µM; GI50 (EKVX NSCLC): 75.2 µM; TGI (EKVX NSCLC): > 100 µM

Q: Which results are given for `COc1ccc(/C=C2\N=C(SC)N(C)C2=O)cc1`?
A: TGI (PC-3 prostate): > 100 µM; TGI (OVCAR-8 ovarian): > 100 µM; TGI (COLO 205 colon): > 100 µM; TGI (HT29 colon): > 100 µM; TGI (SF-539 CNS): > 100 µM; TGI (SK-MEL-2 melanoma): > 100 µM; TGI (K-562 leukemia): > 100 µM; TGI (DU-145 prostate): > 100 µM; TGI (HOP-92 NSCLC): > 100 µM; TGI (TK-10 renal): > 100 µM; TGI (A498 renal): > 100 µM; TGI (UACC-257 melanoma): > 100 µM; TGI (OVCAR-4 ovarian): > 100 µM; TGI (HCT-116 colon): > 100 µM; TGI (NCI/ADR-RES ovarian): > 100 µM; TGI (NCI-H226 lung): > 100 µM; TGI (M14 melanoma): > 100 µM; TGI (MDA-MB-435): > 100 µM; TGI (SK-MEL-5 melanoma): > 100 µM; TGI (CCRF-CEM leukemia): > 100 µM; TGI (NCI-H460 lung): > 100 µM; TGI (786-0 renal): > 100 µM; TGI (HL-60(TB) leukemia): > 100 µM; TGI (SNB-19 CNS): > 100 µM; TGI (UO-31 renal): > 100 µM; TGI (A549 NSCLC): > 100 µM; TGI (IGROV1 ovarian): > 100 µM; TGI (SK-OV-3 ovarian): > 100 µM; TGI (HOP-62 NSCLC): > 100 µM; TGI (SW-620 colon): > 100 µM; TGI (OVCAR-5 ovarian): > 100 µM; TGI (NCI-H23 lung): > 100 µM; TGI (U251 CNS): > 100 µM; TGI (OVCAR-3 ovarian): > 100 µM; TGI (MDA-MB-231 breast): > 100 µM; TGI (T-47D breast): > 100 µM; TGI (RPMI-8226 leukemia): > 100 µM; TGI (HCT-15 colon): > 100 µM; TGI (UACC-62 melanoma): > 100 µM; TGI (SF-268 CNS): > 100 µM; TGI (RXF 393 renal): > 100 µM; TGI (SN12C renal): > 100 µM; TGI (HS 578T breast): 90.4 µM; TGI (MCF7 breast): > 100 µM; TGI (LOX IMVI melanoma): > 100 µM; TGI (SK-MEL-28 melanoma): > 100 µM; TGI (ACHN renal): > 100 µM; TGI (SNB-75 CNS): > 100 µM; TGI (BT-549 breast): > 100 µM
